From patent US20250367160A1, “USE OF GUAIJAVERIN IN PREPARATION OF EYE PROTECTION PRODUCT” (Innovation Center of Yangtze River Delta, ZJU, priority 2024, published 2025)

Experiments:
[1] = tested on: human primary retinal Müller cells; assay: Optical stress (strong white light) model of human primary retinal Müller cells, AlamarBlue cell viability; format: cell-based; settings: pre-incubation 24 h, 32k Lux strong light 4 h
Method: The human primary Müller cells in a logarithmic growth phase were inoculated at a density of 5,000 cells/well in a 96-well plate and cultured in a 37° C., 5% CO2 incubator for 24 h. The medium was removed by aspirating, and 6 replicate wells were set up for guaijaverin groups. 100 μL of the guaijaverin solution dissolved in DMSO solvent in advance was further diluted in DMEM and added into each well, at final concentrations of 10 μM and 30 μM, respectively. The control group was added with 100 μL of DMEM solution. A laboratory-made strong light irradiation system was used to model optical stress on human retinal primary Müller cells cultured in vitro. A strong light irradiation group was irradiated with 32k Lux of strong light for 4 h, while a weak light irradiation group was irradiated with 5k Lux of weak light for 4 h. Then, the cell viability was detected using the AlamarBlue kit.
After the cells were stressed by light, the AlamarBlue kit was used to detect cell viability. The cell culture supernatant was discarded, and the cells were washed twice with 100 μL of PBS. 100 μL of AlamarBlue reagent diluted 1:10 with DMEM solution was added, and the cells were incubated in a 37° C., 5% CO2 incubator for 4 h. The fluorescence of each well was read using a microplate reader at an excitation wavelength of 544 nm and an emission wavelength of 590 nm. 2.

Wild-type AB zebrafish = assay: Determination of maximum test concentration (MTC) in zebrafish blue light eye damage model; format: in vivo; settings: 28° C.; for Death count / Development status (phenotype) / Mortality: aqueous, n = 30
Method: Wild-type AB zebrafish at 1 day post-fertilization (1 dpf) were randomly selected and irradiated with blue light after membrane rupture to establish the zebrafish blue light eye damage model. Model zebrafish with desirable development status were selected at 3 dpf and randomly distributed in 6-well plates, with 30 zebrafish in each well (experimental group) were treated. Different concentrations of guaijaverin (concentrations shown in Table 1) were administered aqueously, and a normal control group and a model group were set up, where a volume of each well was 3 mL. After treatment at 28° C. for 1 d, the MTC of guaijaverin on model zebrafish was determined.

mouse retina = assay: Mouse retinal optical damage model, H&E histopathological evaluation of retina; format: in vivo, BALB/c mice; settings: for morphology and thickness of the outer nuclear layer retina and inner nuclear layer retina (H&E): gavage once a day 10 days, vs model group, FIG. 5
Method: (§1) A self-made light box with a length of 108 cm, a width of 50 cm, and a height of 72 cm was used, and the light intensity was measured by a light meter to be 8,500-10,000 Lux. After eye examination, 60 mice with normal eyeballs were selected and randomly divided into a control group, a model group, a lutein group (100 mg/kg), a guaijaverin low-dose group (50 mg/kg), and a guaijaverin high-dose group (100 mg/kg), with 12 mice in each group. Lutein and guaijaverin were suspended in 5% sodium carboxymethylcellulose (CMC-Na) solution and administered by gavage once a day. The mice in the control and model groups were administered by gavage with an equal volume of 5% CMC-Na for 10 consecutive days. 10 days later, the mice in the model group, lutein group, guaijaverin low-dose group, and guaijaverin high-dose group were kept in the dark for 36 h, atropine eye gel was applied to both eyes of the mice to induce pupil dilation, and the mice were placed in the self-made lighting device of 8,000-10,000 Lux (the control group was raised in a normal environment) and given continuous light for 24 h. After the light exposure, the mice in each group had their eyeballs removed to draw blood and eyeball tissue collected for subsequent experimental tests.
Eyeball tissues of 6 mice were collected from each group for Hematoxylin-eosin staining (H&E) and TUNEL fluorescence staining of apoptotic cells, and the pathological changes of mouse eyeball tissues were observed using an optical microscope (completed by Wuhan Servicebio Biotechnology Co., Ltd.).
a) Dewaxing of paraffin sections to water: the sections were sequentially placed in environmental-friendly dewaxing solution I for 20 min, environmental-friendly dewaxing solution II for 20 min, anhydrous ethanol I for 5 min, anhydrous ethanol II for 5 min, and 75% alcohol for 5 min, and then wash with tap water.
b) Pretreatment: the sections were placed into H&E high-definition constant staining pretreatment solution for 1 min. […]
f) The sections were examined under a microscope and the images were collected and analyzed.

T-AOC = assay: Mouse retinal optical damage model, plasma total antioxidant capacity (T-AOC); format: in vivo, BALB/c mice; settings: gavage once a day 10 days, vs model group, FIG. 7
Method: as §1, with “After the light exposure, the mice in each group had their eyeballs removed to draw blood and eyeball tissue collected for subsequent experimental tests.” left out
The mouse blood was collected in an anticoagulant tube and centrifuged at 3,000 rpm for 10 min at 4° C. to collect the upper plasma. The T-AOC content was determined according to the method provided by the kit manufacturer.

Q: With `O=c1c(O[C@@H]2OC[C@H](O)[C@H](O)[C@H]2O)c(-c2ccc(O)c(O)c2)oc2cc(O)cc(O)c12` [Guaijaverin, guaijaverin] as the molecule, how does the “viability of Müller cells after strong light irradiation” value ([1]; 10 μM, FIG. 1) read?
A: significantly restored

Q: What about the “viability of Müller cells after strong light irradiation” value ([1]; 30 μM, FIG. 2) of the same molecule?
A: restored to the level under weak light irradiation conditions

Q: And the Death count (Wild-type AB zebrafish; 125 μg/mL, 1 d)?
A: 0 per fish

Q: And the “Development status (phenotype)” value (Wild-type AB zebrafish; 125 μg/mL, 1 d)?
A: Status similar to that of model

Q: What about the Mortality (Wild-type AB zebrafish; 125 μg/mL, 1 d) of the same molecule?
A: 0%

Q: And the Death count (Wild-type AB zebrafish; 150 μg/mL, 1 d)?
A: 0 per fish

Q: What about the “Development status (phenotype)” value (Wild-type AB zebrafish; 150 μg/mL, 1 d) of the same molecule?
A: Status similar to that of model

Q: What about the Mortality (Wild-type AB zebrafish; 150 μg/mL, 1 d) of the same molecule?
A: 0%

Q: What about the Dissolution (Wild-type AB zebrafish; 200 μg/mL in fish water) of the same molecule?
A: Precipitated

Q: What about the Death count (Wild-type AB zebrafish; 200 μg/mL, 1 d) of the same molecule?
A: 0 per fish

Q: What about the “Development status (phenotype)” value (Wild-type AB zebrafish; 200 μg/mL, 1 d) of the same molecule?
A: Status similar to that of model

Q: And the Mortality (Wild-type AB zebrafish; 200 μg/mL, 1 d)?
A: 0%

Q: And the Dissolution (Wild-type AB zebrafish; 250 μg/mL in fish water)?
A: Precipitated

Q: And the Death count (Wild-type AB zebrafish; 250 μg/mL, 1 d)?
A: 0 per fish

Q: And the “Development status (phenotype)” value (Wild-type AB zebrafish; 250 μg/mL, 1 d)?
A: Status similar to that of model

Q: And the Mortality (Wild-type AB zebrafish; 250 μg/mL, 1 d)?
A: 0%

Q: What about the Dissolution (Wild-type AB zebrafish; 500 μg/mL in fish water) of the same molecule?
A: Precipitated

Q: What about the Death count (Wild-type AB zebrafish; 500 μg/mL, 1 d) of the same molecule?
A: 0 per fish

Q: What about the “Development status (phenotype)” value (Wild-type AB zebrafish; 500 μg/mL, 1 d) of the same molecule?
A: Status similar to that of model

Q: And the Mortality (Wild-type AB zebrafish; 500 μg/mL, 1 d)?
A: 0%

Q: What about the Dissolution (Wild-type AB zebrafish; 1000 μg/mL in fish water) of the same molecule?
A: Precipitated

Q: What about the Death count (Wild-type AB zebrafish; 1000 μg/mL, 1 d) of the same molecule?
A: 0 per fish

Q: And the “Development status (phenotype)” value (Wild-type AB zebrafish; 1000 μg/mL, 1 d)?
A: Status similar to that of model

Q: And the Mortality (Wild-type AB zebrafish; 1000 μg/mL, 1 d)?
A: 0%

Q: And the Dissolution (Wild-type AB zebrafish; 2000 μg/mL in fish water)?
A: Precipitated

Q: And the Death count (Wild-type AB zebrafish; 2000 μg/mL, 1 d)?
A: 0 per fish

Q: What about the “Development status (phenotype)” value (Wild-type AB zebrafish; 2000 μg/mL, 1 d) of the same molecule?
A: Status similar to that of model

Q: And the Mortality (Wild-type AB zebrafish; 2000 μg/mL, 1 d)?
A: 0%

Q: And the “MTC (maximum test concentration)” value (Wild-type AB zebrafish; model zebrafish, 1 d)?
A: 150 µg/mL

Q: And the “anti-optical damage eye protection efficacy compared with lutein (H&E)” value (mouse retina; high-dose 100 mg/kg vs lutein 100 mg/kg)?
A: better anti-optical damage eye protection efficacy than lutein

Q: What about the “morphology and thickness of the outer nuclear layer retina and inner nuclear layer retina (H&E)” value (mouse retina; high-dose 100 mg/kg) of the same molecule?
A: increase the thickness of the outer nuclear layer retina and inner nuclear layer retina

Q: What about the “morphology and thickness of the outer nuclear layer retina and inner nuclear layer retina (H&E)” value (mouse retina; low-dose 50 mg/kg) of the same molecule?
A: increase the thickness of the outer nuclear layer retina and inner nuclear layer retina

Q: What about the “plasma T-AOC level” value (T-AOC; high-dose 100 mg/kg) of the same molecule?
A: significantly increase the T-AOC level

Q: And the “plasma T-AOC level” value (T-AOC; low-dose 50 mg/kg)?
A: significantly increase the T-AOC level
